According to article PMC6749370, “Antibacterial Evaluation, In Silico Characters and Molecular Docking of Schiff Bases Derived from 5-aminopyrazoles” (Molecules, 2019):
Converted amounts (≈) assume the structure as drawn. Marks after values point to notes of the source that are not given here.

Columns and labels:
Escherichia coli (Ec) = assay: Minimal inhibitory concentration against multi-drug resistant bacteria; type: cell-based; settings: NA: No Activity
Procedure: (§1) In vitro antibacterial activities against multi-drug resistant bacteria (MDRB) of Schiff bases 14–25 were performed at botany and microbiology department, Faculty of Science, Al-Azhar University, Cairo, Egypt. The antibacterial potential of 14–25 were investigated towards the multi-drug resistant bacteria (MDRB). The results were summarized as the diameter of the inhibition zones in mm and minimal inhibitory concentration (MIC, µg/mL) values in Table 2.
(§2) The synthesized compounds, Schiff bases 14–25, were in vitro evaluation of their antibacterial properties against multi-drug resistant bacteria (MDRB). Examples of Gram-positive bacteria are Staphylococcus aureus (MRSA, Sa), Staphylococcus epidermis (Sp), and Enterococcus faecalis (Ef). Examples of Gram-negative bacteria are Acinetobacter baumannii (Ab), Enterobacter cloaca (Ecl), and Escherichia coli (Ec). All the tested strain was identified by Vitek®2 system. The multi-drug resistant to antibiotics such as Ampicillin, Cephalexin, Colisin, Ipemenem, and Meropenem was verified.

[1] = tested on: Enterococcus faecalis (Ef); assay: as above; type: cell-based; settings: NA: No Activity
Procedure: as §1, §2

[2] = tested on: Staphylococcus aureus (MRSA, Sa); assay: as above; type: cell-based; settings: NA: No Activity
Procedure: as §1, §2

[3] = tested on: Staphylococcus epidermis (Se); assay: as above; type: cell-based; settings: NA: No Activity
Procedure: as §1, with “(MDRB).” for “(MDRB). The results were summarized as the diameter of the inhibition zones in mm and minimal inhibitory concentration (MIC, µg/mL) values in Table 2.”
as §2, with “system.” for “system. The multi-drug resistant to antibiotics such as Ampicillin, Cephalexin, Colisin, Ipemenem, and Meropenem was verified.”

[4] = tested on: Enterobacter cloaca (Ecl); assay: as above; type: cell-based; settings: NA: No Activity
Procedure: as §1, with “(MDRB).” for “(MDRB). The results were summarized as the diameter of the inhibition zones in mm and minimal inhibitory concentration (MIC, µg/mL) values in Table 2.”
as §2, with “system.” for “system. The multi-drug resistant to antibiotics such as Ampicillin, Cephalexin, Colisin, Ipemenem, and Meropenem was verified.”

[5] = tested on: Acinetobacter baumannii (Ab); assay: as above; type: cell-based; settings: NA: No Activity
Procedure: as §1, with “(MDRB).” for “(MDRB). The results were summarized as the diameter of the inhibition zones in mm and minimal inhibitory concentration (MIC, µg/mL) values in Table 2.”
as §2, with “system.” for “system. The multi-drug resistant to antibiotics such as Ampicillin, Cephalexin, Colisin, Ipemenem, and Meropenem was verified.”

[6] = biological target: Staphylococcus aureus DNA gyrase (Staphylococcus aureus, UniProt P0A0K8+P20831); assay: In vitro enzyme inhibition assay; type: biochemical; settings: mean of three values, read-out: IC50 (Mean ± SEM) DNA Gyrase
Topoisomerase IV = Topoisomerase IV (Staphylococcus aureus, UniProt P0C1S7+P0C1U9); assay: In vitro enzyme inhibition assay; type: biochemical

SMILES | MIC (Escherichia coli (Ec)) [µg/mL] | MIC [1] [µg/mL] | MIC [2] [µg/mL] | MIC [3] [µg/mL] | MIC [4] [µg/mL] | MIC [5] [µg/mL] | Minimal inhibitory concentration (MIC), Ec (Escherichia coli (Ec)) | Minimal inhibitory concentration (MIC), Ecl [4] | Minimal inhibitory concentration (MIC), Ef [1] | Minimal inhibitory concentration (MIC), Sa [2] | Minimal inhibitory concentration (MIC), Ab [5] | IC50 [6] [µM] | IC50 (Topoisomerase IV) [µM]
O=C(O)c1cn(C2CC2)c2cc(N3CCNCC3)c(F)cc2c1=O [Ciprofloxacin, reference compound] | 7.81 (≈ 23.6 µM) | 7.81 (≈ 23.6 µM) | 7.81 (≈ 23.6 µM) |  |  |  |  |  |  |  |  |  | 
COc1ccc(Nc2n[nH]c(/N=C/c3ccccc3)c2C(=O)Nc2ccccc2)cc1 [Compound 14] |  | 15.6 (≈ 38 µM) | 31.2 (≈ 75.9 µM) | 7.81 (≈ 19 µM) | 125 (≈ 304 µM) |  |  |  |  |  |  |  | 
COc1ccc(Nc2n[nH]c(/N=C/c3ccc(Cl)cc3)c2C(=O)Nc2ccccc2)cc1 [Compound 16] | 125 (≈ 280 µM) | 62.5 (≈ 140 µM) | 31.2 (≈ 70.1 µM) | 7.81 (≈ 17.5 µM) | 62.5 (≈ 140 µM) | 15.6 (≈ 35 µM) |  |  |  |  | 15.62 * µg/mL |  | 
COc1ccc(Nc2n[nH]c(/N=C/c3ccccc3)c2C(=O)Nc2ccc(C)cc2)cc1 [Compound 18] | 250 (≈ 588 µM) | 31.2 (≈ 73.4 µM) | 15.6 (≈ 36.7 µM) | 7.81 (≈ 18.4 µM) | 62.5 (≈ 147 µM) | 15.6 (≈ 36.7 µM) |  |  |  | 15.62 * µg/mL | 15.62 * µg/mL | 1.68 ± 0.1 | 74.6 ± 1.2
COc1ccc(Nc2n[nH]c(/N=C/c3ccc(Cl)cc3)c2C(=O)Nc2ccc(C)cc2)cc1 [Compound 20] |  | 250 (≈ 544 µM) | 62.5 (≈ 136 µM) | 125 (≈ 272 µM) |  |  |  |  |  |  |  |  | 
COc1ccc(Nc2n[nH]c(/N=C/c3ccccc3)c2C(=O)Nc2ccc(Cl)cc2)cc1 [Compound 22] |  | 125 (≈ 280 µM) | 250 (≈ 561 µM) | 125 (≈ 280 µM) | 15.6 (≈ 35 µM) |  |  | 15.62 * µg/mL |  |  |  |  | 
COc1ccc(Nc2n[nH]c(/N=C/c3ccc(C)cc3)c2C(=O)Nc2ccc(Cl)cc2)cc1 [Compound 23] |  | 7.81 (≈ 17 µM) | 31.2 (≈ 67.9 µM) | 15.6 (≈ 34 µM) | 62.5 (≈ 136 µM) |  |  |  | 7.81 * µg/mL |  |  |  | 
COc1ccc(Nc2n[nH]c(/N=C/c3ccc(Cl)cc3)c2C(=O)Nc2ccc(Cl)cc2)cc1 [Compound 24] | 125 (≈ 260 µM) | 15.6 (≈ 32.5 µM) | 125 (≈ 260 µM) | 62.5 (≈ 130 µM) | 62.5 (≈ 130 µM) |  |  |  |  |  |  |  | 

Further lines, with some results ahead:

MIC (Escherichia coli (Ec)) [µg/mL] | MIC [1] [µg/mL] | MIC [2] [µg/mL] | MIC [3] [µg/mL] | MIC [4] [µg/mL] | MIC [5] [µg/mL] | Minimal inhibitory concentration (MIC), Ec (Escherichia coli (Ec)) | Minimal inhibitory concentration (MIC), Ecl [4] | Minimal inhibitory concentration (MIC), Ef [1] | SMILES | Minimal inhibitory concentration (MIC), Sa [2] | Minimal inhibitory concentration (MIC), Ab [5] | IC50 [6] [µM] | IC50 (Topoisomerase IV) [µM]
125 (≈ 294 µM) | 31.2 (≈ 73.4 µM) | 62.5 (≈ 147 µM) | 15.6 (≈ 36.7 µM) | 62.5 (≈ 147 µM) | 62.5 (≈ 147 µM) |  |  |  | COc1ccc(Nc2n[nH]c(/N=C/c3ccc(C)cc3)c2C(=O)Nc2ccccc2)cc1 [Compound 15] | 62.50 µg/mL (≈ 147 µM) |  |  | 
31.2 (≈ 72.8 µM) |  | 62.5 (≈ 146 µM) | 31.2 (≈ 72.8 µM) | 125 (≈ 291 µM) | 62.5 (≈ 146 µM) | 31.25 * µg/mL |  |  | COc1ccc(Nc2n[nH]c(/N=C/c3ccc(F)cc3)c2C(=O)Nc2ccccc2)cc1 [Compound 17] |  |  |  | 
62.5 (≈ 142 µM) | 15.6 (≈ 35.5 µM) | 31.2 (≈ 71.1 µM) | 15.6 (≈ 35.5 µM) | 125 (≈ 284 µM) | 62.5 (≈ 142 µM) |  |  |  | COc1ccc(Nc2n[nH]c(/N=C/c3ccc(C)cc3)c2C(=O)Nc2ccc(C)cc2)cc1 [Compound 19] |  |  |  | 
 |  | 125 (≈ 282 µM) | 62.5 (≈ 141 µM) |  |  |  |  |  | COc1ccc(Nc2n[nH]c(/N=C/c3ccc(F)cc3)c2C(=O)Nc2ccc(C)cc2)cc1 [Compound 21] |  |  |  | 
